This is an account of results in publication PMC4845953 (Journal of materials chemistry. B, Materials for biology …, 2016).

Data set [1] is classed as physicochemical. Conditions: pH 7.4.
For data set [2], the target named is proteinase K (Parengyodontium album, UniProt P06873).
Data set [3] is classed as physicochemical. Conditions: pH 7.4. This is another data set of the same source.
The format of data set [4] is physicochemical. Conditions: pH 7.4. This is another data set of the same source.
The subject of data set [5] is HeLa cells. Conditions: 48 h.

Structures are written as SMILES. Non-standard residues stand in square brackets, D forms with d. Residues, ends and D or L forms follow the SMILES beside them. *: point of attachment. d(pY) = N[C@H](Cc1ccc(OP(=O)(O)O)cc1)C(=O)O; Acetyl(2-naphthyl) = O=C(Cc1ccc2ccccc2c1)*; pY = N[C@@H](Cc1ccc(OP(=O)(O)O)cc1)C(=O)O

Chain of proteinase K (P06873 106-384): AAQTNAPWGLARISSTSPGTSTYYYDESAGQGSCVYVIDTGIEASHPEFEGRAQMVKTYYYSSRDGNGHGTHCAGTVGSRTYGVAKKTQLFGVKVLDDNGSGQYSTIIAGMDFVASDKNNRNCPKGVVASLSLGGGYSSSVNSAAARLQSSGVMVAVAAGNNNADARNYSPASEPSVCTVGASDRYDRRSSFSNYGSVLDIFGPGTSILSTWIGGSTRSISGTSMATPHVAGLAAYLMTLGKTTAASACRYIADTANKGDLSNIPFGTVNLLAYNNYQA

Usually IC50 stands for the concentration at which inhibition is half-maximal. A high value points to lower potency. For the compound `NC(=O)CC[C@H](NC(=O)[C@H](CCC(N)=O)NC(=O)[C@H](CC(N)=O)NC(=O)[C@H](CC(N)=O)NC(=O)CNC(=O)[C@H](Cc1ccccc1)NC(=O)[C@H](Cc1ccccc1)NC(=O)Cc1ccc2ccccc2c1)C(=O)N[C@@H](CC(N)=O)C(=O)N[C@@H](Cc1ccc(OP(=O)(O)O)cc1)C(=O)O` [Precursor L-3P, N’FFGNNQQNYp] ({Acetyl(2-naphthyl)}-FFGNNQQN[pY]-OH), in data set [1], the “ALP gel: dynamic strain sweep, Max. G′” value was found to be 32.8 Pa and the “ALP gel: dynamic strain sweep, critical strains” value (shortened to “ALP gel … critical strains”) is given as 13.2%. Further, the “proteolytic stability towards proteinase K” value in data set [2] is reported as “almost completely degrade”. For the same compound, the “time to hydrogel after addition of ALP” value in data set [3] worked out at 10 min. For the same compound, the “ALP gel: TEM fiber width” value in data set [4] was determined as 8 ± 2 nm. In addition, 476 ± 21.4 µM corresponded to half-maximal inhibition in data set [5] (IC50).
For `NC(=O)CC[C@H](NC(=O)[C@H](CCC(N)=O)NC(=O)[C@H](CC(N)=O)NC(=O)[C@H](CC(N)=O)NC(=O)CNC(=O)[C@H](Cc1ccccc1)NC(=O)[C@H](Cc1ccccc1)NC(=O)Cc1ccc2ccccc2c1)C(=O)N[C@@H](CC(N)=O)C(=O)N[C@@H](Cc1ccc(O)cc1)C(=O)O` [Precursor L-3] ({Acetyl(2-naphthyl)}-FFGNNQQNY-OH), in data set [1], the “ALP gel: dynamic strain sweep, Max. G′” value is given as 33 Pa and the “ALP gel … critical strains” value is recorded as 13.2%. Besides, in data set [4], the “ALP gel: TEM fiber width” value is listed as “about 8 ± 2 nm”.
In the case of `NC(=O)CC[C@@H](NC(=O)[C@@H](CCC(N)=O)NC(=O)[C@@H](CC(N)=O)NC(=O)[C@@H](CC(N)=O)NC(=O)CNC(=O)[C@@H](Cc1ccccc1)NC(=O)[C@@H](Cc1ccccc1)NC(=O)Cc1ccc2ccccc2c1)C(=O)N[C@H](CC(N)=O)C(=O)N[C@H](Cc1ccc(OP(=O)(O)O)cc1)C(=O)O` [Precursor D-3P, N’ffgnnqqnyp] ({Acetyl(2-naphthyl)}-[dF][dF]G[dN][dN][dQ][dQ][dN][d(pY)]-OH), the “proteolytic stability towards proteinase K” value in data set [2] is listed as “high resistance”. The compound further returned an IC50 in data set [5] of more than 500 µM.
Consider `NC(=O)CC[C@@H](NC(=O)[C@@H](CCC(N)=O)NC(=O)[C@@H](CC(N)=O)NC(=O)[C@@H](CC(N)=O)NC(=O)CNC(=O)[C@@H](Cc1ccccc1)NC(=O)[C@@H](Cc1ccccc1)NC(=O)Cc1ccc2ccccc2c1)C(=O)N[C@H](CC(N)=O)C(=O)N[C@H](Cc1ccc(O)cc1)C(=O)O` [Precursor D-3] ({Acetyl(2-naphthyl)}-[dF][dF]G[dN][dN][dQ][dQ][dN][dY]-OH), for which, in data set [1], the “ALP gel: dynamic strain sweep, Max. G′” value is 132 Pa and the “ALP gel … critical strains” value worked out at 7.0%.
